Consider 26 molecules from ChEMBL document CHEMBL4393739, “Design, synthesis and anti-inflammatory evaluation of novel pyrrolo[2,3-d]pyrimidin derivatives as potent JAK inhibitors” (Bioorg Med Chem, 2019).

The target in data set [1] is Tyrosine-protein kinase JAK1 (Homo sapiens) (UniProt P23458). Conditions: at 10 µM.
A short description of data set [2]: Solubility of the compound. It is filed as physicochemical.
In data set [3] the test system is RAW264.7. Nature of the data set: Cytotoxicity against mouse RAW264.7 cells assessed as cell growth inhibition measured after 24 hrs by MTT assay. Type of data set: cell-based. Conditions: for IC50: Mus musculus, RAW264.7, 24 h; for Activity: mouse, raw264.7, 24 h. For orientation: Formazan colour is commonly taken as a measure of viable cells.
Data set [4] concerns RAW264.7. The data set is described as follows: Antiinflammatory activity in LPS-induced mouse RAW264.7 cells assessed as protection against cell damage by measuring reduction in apoptotic body formation at 10 ug/ml cotreated with LPS measured after 18 hrs by light microscopy. Type of data set: functional, cell-based.
Data set [5] has as its system RAW264.7. Nature of the data set: Antiinflammatory activity in mouse RAW264.7 cells assessed as reduction in LPS-induced JAK1 expression by Western blot analysis. Type of data set: functional, cell-based. (In western blotting, separated proteins are transferred to a membrane and probed.)
In data set [6] the test system is RAW264.7. The data set is described as follows: Antiinflammatory activity in mouse RAW264.7 cells assessed as reduction in LPS-induced JAK2 expression by Western blot analysis. Type of data set: functional, cell-based.
For data set [7], the system named is RAW264.7. The data set is described as follows: Antiinflammatory activity in mouse RAW264.7 cells assessed as reduction in LPS-induced upregulation of IL-1 beta expression by Western blot analysis. Type of data set: functional, cell-based.
Data set [8] concerns RAW264.7. The data set is described as follows: Antiinflammatory activity in LPS-induced mouse RAW264.7 cells assessed as reduction in NO generation by measuring NO level at 2.5 ug/ml measured after 18 hrs by Griess method. It is filed as functional, cell-based.
The test system of data set [9] is RAW264.7. The data set is described as follows: Antiinflammatory activity in LPS-induced mouse RAW264.7 cells assessed as reduction in NO generation by measuring NO level at 5 ug/ml measured after 18 hrs by Griess method. Type of data set: functional, cell-based.
Data set [10] has as its system RAW264.7. The data set is described as follows: Antiinflammatory activity in LPS-induced mouse RAW264.7 cells assessed as reduction in NO generation by measuring NO level at 10 ug/ml measured after 18 hrs by Griess method. Type of data set: functional, cell-based. Background: Griess reagent forms a coloured azo dye with nitrite.
In data set [11] the test system is RAW264.7. The data set is described as follows: Antiinflammatory activity in LPS-induced mouse RAW264.7 cells assessed as protection against cell damage by measuring reduction in cell shrinking at 10 ug/ml cotreated with LPS measured after 18 hrs by light microscopy. It is filed as functional, cell-based.
The test system of data set [12] is RAW264.7. The data set is described as follows: Antiinflammatory activity in LPS-induced mouse RAW264.7 cells assessed as protection against cell damage by measuring reduction in cell rounding at 10 ug/ml co-treated with LPS measured after 18 hrs by light microscopy. Type of data set: functional, cell-based.

Each structure is given as a SMILES string. Calls of active or inactive are those of the source. No cut-off for these calls is given here.

Chain of Tyrosine-protein kinase JAK1 (Homo sapiens) (P23458 whole entry): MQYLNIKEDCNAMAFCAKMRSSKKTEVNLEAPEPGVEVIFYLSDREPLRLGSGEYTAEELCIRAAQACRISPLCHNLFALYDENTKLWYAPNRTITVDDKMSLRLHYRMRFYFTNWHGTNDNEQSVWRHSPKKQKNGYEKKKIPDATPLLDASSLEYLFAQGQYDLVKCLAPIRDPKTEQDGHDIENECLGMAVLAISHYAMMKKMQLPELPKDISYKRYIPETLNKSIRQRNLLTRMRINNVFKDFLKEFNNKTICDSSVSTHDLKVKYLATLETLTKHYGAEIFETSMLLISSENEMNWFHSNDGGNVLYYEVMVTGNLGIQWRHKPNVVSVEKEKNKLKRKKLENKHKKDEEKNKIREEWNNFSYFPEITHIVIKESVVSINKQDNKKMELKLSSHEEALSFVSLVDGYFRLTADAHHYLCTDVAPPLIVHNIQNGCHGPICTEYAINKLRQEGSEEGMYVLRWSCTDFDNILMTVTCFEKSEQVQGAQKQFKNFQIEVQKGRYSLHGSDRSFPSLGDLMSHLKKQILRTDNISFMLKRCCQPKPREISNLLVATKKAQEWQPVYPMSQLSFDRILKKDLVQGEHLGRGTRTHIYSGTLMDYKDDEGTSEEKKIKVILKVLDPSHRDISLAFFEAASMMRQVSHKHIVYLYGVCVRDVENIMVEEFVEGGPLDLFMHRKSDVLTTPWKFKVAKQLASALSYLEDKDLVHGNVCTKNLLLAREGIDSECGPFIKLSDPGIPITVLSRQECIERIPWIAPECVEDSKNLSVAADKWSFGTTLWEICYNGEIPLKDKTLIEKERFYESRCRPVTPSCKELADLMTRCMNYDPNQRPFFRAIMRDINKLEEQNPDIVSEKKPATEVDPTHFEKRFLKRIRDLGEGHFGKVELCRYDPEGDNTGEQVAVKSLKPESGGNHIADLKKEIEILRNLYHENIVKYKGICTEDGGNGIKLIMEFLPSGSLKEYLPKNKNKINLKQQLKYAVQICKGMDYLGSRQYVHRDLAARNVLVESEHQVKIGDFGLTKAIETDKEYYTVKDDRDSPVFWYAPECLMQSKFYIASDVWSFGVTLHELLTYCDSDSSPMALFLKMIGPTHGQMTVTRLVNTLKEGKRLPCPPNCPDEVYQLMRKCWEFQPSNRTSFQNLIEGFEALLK

By inhibition is commonly meant the relative decrease from the control value, in per cent. The low end stands for little suppression, the high end for strong suppression. `CN1CCN(CC(=O)N2CCC(n3cc(-c4ncnc5[nH]ccc45)cn3)CC2)CC1` yielded an inhibition in data set [1] of 72.8%.

Consider `O=[N+]([O-])c1cccc(S(=O)(=O)N2CCC(n3cc(-c4ncnc5[nH]ccc45)cn3)CC2)c1`, for which the solubility entry in data set [2] is “Insoluble”. In addition, the inhibition in data set [1] was 92.4%.

In the case of `O=S(=O)(c1ccc(Br)cc1)N1CCC(n2cc(-c3ncnc4[nH]ccc34)cn2)CC1`, the solubility entry in data set [2] is “Insoluble”. In [1], this molecule displayed an inhibition of 60.3%.

Consider `Cc1ccc(S(=O)(=O)N2CCC(n3cc(-c4ncnc5[nH]ccc45)cn3)CC2)cc1`, for which the solubility result in data set [2] is recorded as “Insoluble”. Besides, the inhibition in data set [1] was 92.4%.

`O=C(CN1CCCC1)N1CCC(n2cc(-c3ncnc4[nH]ccc34)cn2)CC1`: in data set [1], the inhibition worked out at 55.1%.

In turn, `O=C(CN1CCN(CCO)CC1)N1CCC(n2cc(-c3ncnc4[nH]ccc34)cn2)CC1` displayed an inhibition in [1] of 83%.

Regarding `COc1ccc(S(=O)(=O)N2CCC(n3cc(-c4ncnc5[nH]ccc45)cn3)CC2)cc1`, the solubility entry in data set [2] is “Insoluble”. In [1], this molecule came in with an inhibition of 53.2%.

Consider `O=S(=O)(C1CC1)N1CCC(n2cc(-c3ncnc4[nH]ccc34)cn2)CC1`, for which the solubility entry in [2] is “Insoluble”. The inhibition in [1] amounted to 59.4%.

For orientation: IC50 means the concentration that gives 50% inhibition. As to `CC1CCN(CC(=O)N2CCC(n3cc(-c4ncnc5[nH]ccc45)cn3)CC2)CC1`, the IC50 in data set [3] was found to be 88.2 µM. For the same molecule, the Activity entry in [3], in [5] and in data set [6] was “Dose-dependent effect” throughout. In addition, the result in data set [4], in [7], in [8], in data set [9], in [10] and in [11] was Active. The result in data set [12] was Active. In addition, the inhibition in [1] stood at 90.3%.

As for `CCN(CC)CC(=O)N1CCC(n2cc(-c3ncnc4[nH]ccc34)cn2)CC1`, the inhibition in [1] is 38.6%.

Consider `O=S(=O)(c1ccccc1)N1CCC(n2cc(-c3ncnc4[nH]ccc34)cn2)CC1`, for which the solubility entry in data set [2] is reported as “Insoluble”. Moreover, the inhibition in data set [1] was found to be 2.7%.

Take `N#Cc1ccc(S(=O)(=O)N2CCC(n3cc(-c4ncnc5[nH]ccc45)cn3)CC2)cc1`: the solubility entry in data set [2] is listed as “Insoluble”. Besides, the inhibition in data set [1] turned out to be 72.5%.

Consider `O=S(=O)(c1ccc(F)cc1)N1CCC(n2cc(-c3ncnc4[nH]ccc34)cn2)CC1`, for which the solubility result in data set [2] is reported as “Insoluble”. Further, the inhibition in data set [1] was found to be 93.4%.

`CS(=O)(=O)N1CCC(n2cc(-c3ncnc4[nH]ccc34)cn2)CC1`: the solubility entry in data set [2] is reported as “Insoluble”. Besides, the inhibition in [1] stood at 22.1%.

In turn, `CN(C)CC(=O)N1CCC(n2cc(-c3ncnc4[nH]ccc34)cn2)CC1` displayed an inhibition in data set [1] of 46.9%.

On to `CCS(=O)(=O)N1CCC(n2cc(-c3ncnc4[nH]ccc34)cn2)CC1`, for which, in data set [2], the solubility result is reported as “Insoluble”. The inhibition in [1] was 95.2%.

As for `O=C(CN1CCCCC1)N1CCC(n2cc(-c3ncnc4[nH]ccc34)cn2)CC1`, in data set [1], the inhibition came to 65.6%.

Molecule `O=C(CN1CCOCC1)N1CCC(n2cc(-c3ncnc4[nH]ccc34)cn2)CC1` returned an inhibition in [1] of 69.6%.

Consider `O=S(=O)(c1ccc(Cl)cc1)N1CCC(n2cc(-c3ncnc4[nH]ccc34)cn2)CC1`, for which, in [2], the solubility entry is given as “Insoluble”. The inhibition in data set [1] came to 63.7%.

On to `O=[N+]([O-])c1ccc(S(=O)(=O)N2CCC(n3cc(-c4ncnc5[nH]ccc45)cn3)CC2)cc1`, for which the solubility result in [2] is given as “Insoluble”. The same molecule came in with an inhibition in data set [1] of 99.6%.

`Cc1ccccc1S(=O)(=O)N1CCC(n2cc(-c3ncnc4[nH]ccc34)cn2)CC1`: the solubility entry in data set [2] is on record as “Insoluble”. This molecule displayed an inhibition in data set [1] of 94.7%.

For `O=S(=O)(c1cccc(Br)c1)N1CCC(n2cc(-c3ncnc4[nH]ccc34)cn2)CC1`, the solubility entry in data set [2] was “Insoluble”. This molecule also gave an inhibition in data set [1] of 72.8%.

As for `O=C(O)C1CCN(CC(=O)N2CCC(n3cc(-c4ncnc5[nH]ccc45)cn3)CC2)CC1`, the IC50 in [3] was 80.9 µM. The Activity entry in data set [3], in data set [5] and in data set [6] was “Dose-dependent effect” in each case. Further, the outcome in data set [4], in data set [7], in data set [11] and in [12] was Active. In addition, in [1], the inhibition was 92.5%.

As to `O=[N+]([O-])c1ccccc1S(=O)(=O)N1CCC(n2cc(-c3ncnc4[nH]ccc34)cn2)CC1`, the result in data set [8], in data set [9] and in [10] was Active. In addition, in data set [2], the solubility entry is given as “Insoluble”. Moreover, the inhibition in [1] turned out to be 96.6%.

Turning to `O=S(=O)(c1cc(F)cc(F)c1)N1CCC(n2cc(-c3ncnc4[nH]ccc34)cn2)CC1`, the solubility entry in data set [2] is “Insoluble”. In addition, the inhibition in [1] turned out to be 93.6%.

As for `CCS(=O)(=O)N1CC(CC#N)(n2cc(-c3ncnc4[nH]ccc34)cn2)C1`, the outcome in data set [8], in [9] and in [10] was Active.
